Results: US7658727B1, “Implantable medical device with enhanced biocompatibility and biostability” (Medtronic, Inc, priority 1998, dated 2010)

Legend:
Assay type in all cases: cell-based
IL-1α = experiment: In vitro expression of IL-1α in human primary monocytes; details: DEX 2.5, 0.25, 0.025 μg/ml; methotrexate 50, 5, 0.5 μg/ml
Experimental: (§2) In order to assess the in vitro expression of IL-1α and IL-8, human primary monocytes were incubated with various concentrations of DEX (2.5, 0.25, and 0.025 μg/ml) and methotrexate (50, 5, and 0.5 μg/ml).

IL-8 = experiment: In vitro expression of IL-8 in human primary monocytes; details: DEX 2.5, 0.25, 0.025 μg/ml; methotrexate 50, 5, 0.5 μg/ml
Experimental: as §2

human Mo/MØs = experiment: Surface analysis (OM/SEM) for environmental stress cracking after macrophage/FeCl2 treatment; details: AS PEU exposed to Mo/MØs plus DSP followed by FeCl2
Experimental: Macrophage Treatment. The PEU film specimens (AS and non-AS) in the microwell plates were covered with either freshly isolated human or rabbit monocyte-derived macrophage (Mo/MØs), or human lymphocytes (3×10^5 cells per well) and cultured in a standard media (RPMI-1640, 10% Fetal bovine serum, […], 10 Ul/ml Penicillin-G and 0.1 mg/ml Streptomycin). A 49-day macrophage treatment was conducted under standard conditions (i.e., presence of 5% CO2, and 95% humidity at 37° C.). […] Two blank conditions were also studied. In one, culture media only was placed into the microwells. The other was prepared with no culture media and stored in the dark. All polymer specimens were incubated for the time of the first treatment. Samples in triplicate were removed after various time periods for hydroperoxide determination. After a 49-day incubation, specimens were prepared in triplicate for the second step of the sample treatment protocol.
FeCl2 treatment. […]
(§1) The polymer films (0.12 mm thick) were sufficiently thin and transparent to enable visualization of cells on their surfaces during cell culturing using optical microscopy (OM) with an Olympus BX40 light microscope. […] The polymer surfaces were also evaluated using SEM following the 10-day treatment with FeCl2. […]

[1] = tested on: human monocyte-derived macrophage (Mo/MØs); experiment: Morphology of Mo/MØ monolayers on polyetherurethane (OM, SEM); details: Mo/MØs cultured on PEU with DSP in culture media
Experimental: Human and rabbit blood was used as sources of the cells in these experiments. Blood was anticoagulated with 2 units/ml sodium heparin (Upjohn Co., Kalamazoo, MI). Mononuclear cells (lymphocytes, monocytes) were isolated within 15 minutes by a one-step density gradient centrifugation procedure using Isopaque-1077 (a density gradient solution) according to a modified Boyum's method (Boyum et al., Blood Separation and Plasma Fractionation, 217-239, Wiley-Liss, Inc. (1991)). The mononuclear cells were harvested and washed twice with cold Hanks balanced salt solution (HBSS) without Ca^2+ and Mg^2+ to minimize cell aggregation. The cells were then resuspended in standard media (RPMI-1640, 10% Fetal bovine serum, […], 10 Ul/ml Penicillin-G, and 0.1 mg/ml Streptomycin). The cell suspension was seeded into several plastic tissue culture flasks and incubated in the presence of 5% CO2 at 37° C. for 1 hour (Ackerman et al., J. Immunol., 20, 1372-1374 (1978)). After this incubation, adherent (monocytes) were gently scrapped from the surface and resuspended in standard media. […]
as §1

Row | Structure (SMILES) | IL-1 inhibition (IL-1α) | IL-8 inhibition (IL-8) | surface damage (SEM) after FeCl2 (human Mo/MØs) | cell size of Mo/MØ monolayers (OM) [1]
1 | CN(Cc1cnc2nc(N)nc(N)c2n1)c1ccc(C(=O)N[C@@H](CCC(=O)O)C(=O)O)cc1 [methotrexate] | higher rate of IL-1 and IL-8 inhibition | higher rate of IL-1 and IL-8 inhibition | – | –
2 | C[C@@H]1C[C@H]2[C@@H]3CCC4=CC(=O)C=C[C@]4(C)[C@@]3(F)[C@@H](O)C[C@]2(C)[C@@]1(O)C(=O)COP(=O)(O)O [DSP, dexamethasone sodium phosphate] | – | – | only very occasional pits | no increase in cell size
